Measured values published in a melting point compilation (Tetko et al.; mined from patent text by program, amines drawn as free bases though some values may be those of a salt).

Row | melting point [°C] | Compound
1 | 125 to 126 | C#CCOc1ccccc1OS(=O)(=O)NC(=O)Nc1nc(OC)cc(OC)n1
2 | 146 to 149 | NC(=O)C1CCN(C(=O)CNC(=O)OCc2ccccc2)CC1
3 | 225 to 226 | Cn1c(=O)c(NC(=O)Nc2ccc(F)cc2F)c(-c2ccccc2Cl)c2cccnc21
4 | 176 | CCOC(=O)[C@](CC(=O)OC1CC(C)CCC1C(C)C)(NC(=O)OC(C)(C)C)C(N)=O (some centres undefined)
5 | 271 | O=C(C=Cc1ccccc1)NNC(=O)c1ccccc1O
6 | 131 to 132 | Cc1c(Br)c2c(c(C)c1NC(=O)OC(C)(C)C)C(=O)C(C)(C)O2
7 | 167 to 169 | CCOC(CN1C(=O)C(NC(=O)Nc2cccc(C)c2)CN(C(=O)C(C)(C)C)c2ccccc21)OCC (centres undefined)
8 | 173 | COC(=O)c1cc(NC(=O)OC(C)(C)C)c([N+](=O)[O-])cc1C#Cc1ccccc1
9 | 200 to 201 | COC(=O)C1=C(O)c2c(c3cc(OC)ccc3n2C)S(=O)(=O)N1C
10 | 151 to 153 | CCc1nn2ccc3c(c2c1C(C)CNC(C)=O)CCO3 (centres undefined)
11 | 148 to 149 | CCCCCCCNC(=O)N(C)c1cccc(-c2ccc(C=CC(=O)O)c(F)c2)c1
12 | 208 to 209 | C=CCNC(=O)NCC1Cc2ccc(-c3ccc(=O)[nH]n3)cc2C1 (centres undefined)
13 | 86 to 87 | CCNC(=O)c1c(F)cccc1[Si](C)(C)C
14 | 30 | CCCCCCCCC/C=C1\SC(=O)N(CC(=O)OC)C1=O
15 | 214 to 216 | CC1(C(=O)c2c[nH]c3ncc(-c4cccc(N5CCN(C(=O)CC#N)CC5)c4)nc23)CCCCC1
16 | 227 | O=C(O)CNC1CCCc2ccccc21 (centres undefined)
17 | 287 to 288 | Cc1c(F)c(F)c(F)c2c1c(=O)c(C(=O)O)cn2-c1ccc(O)cc1
18 | 194 to 197 | CC(COc1cccc2ccccc12)Nc1ccc(C(=O)O)cc1 (centres undefined)
19 | 215 to 220 | Nc1nc(-n2cc(C(=O)O)c(=O)c3cc(F)c(N4CC(O)C4)c(Br)c32)c(F)cc1F

Row | melting point [°C] | Compound
20 | 187 to 190 | CC(=O)N1CCN(C(=S)Nc2cc3sc(C(C)(C)C)nc3cc2N2CCC(C)CC2)CC1
21 | 208 | COC(=O)c1cc2cc(C=O)c3ccccc3c2s1
22 | 174 to 175 | CCOC(=O)CC(NCCCNC(C)(C)C)C(=O)O (centres undefined)
23 | 295 | COc1ccc(-c2[nH]nc3c2C(=O)c2c(NC(=O)CN4CCOCC4)cccc2-3)cc1
24 | 188 to 189 | COC(=O)C1=C(C)NC(C)=C(C(=O)OC)C1c1ccccc1Cl
25 | 235 | CCOC(=O)NNc1ccc(-c2ccc(C#N)cc2)nn1
26 | 174 to 176 | O=C(O)Cc1cc(Br)c(S(=O)(=O)c2ccc(O)c(I)c2)c(Br)c1
27 | 213 to 215 | CCNC(=O)c1ccc(CN2CCN(c3ccncc3)CC2)cc1
28 | 183 to 185 | CCC[C@H](N[C@@H](C)C(=O)N1N=C(C(C)(C)C)S[C@H]1C(=O)O)C(=O)OCC
29 | 198 to 204 | Cc1cccc(NC(=O)c2cccc(C(F)(F)F)c2)c1C(=O)O
30 | 265 to 266 | CC[C@@]12C/C(=C\c3ccccc3)C(=O)C[C@H]1CCc1cc(O)ccc12
31 | 143 to 144 | CC(=O)c1cc2c(cc1NC(=O)c1cccc3ccccc13)OCO2
32 | 130 to 132 | COc1cc2c(cc1Cl)CCN(C)CC2c1ccc(I)cc1 (centres undefined)
33 | 201 to 202 | CC(=O)Nc1c(I)c(C(=O)O)c(I)c(C(=O)NCC(=O)O)c1I
34 | 140 to 141 | C[C@@H](Cn1ncc2ccc3oc(C(=O)OCc4ccccc4)cc3c21)NC(=O)OCc1ccccc1
35 | 161 to 163 | CCOC(=O)c1cnc2c3ccccc3c(CC)cn2c1=O
36 | 182 to 183 | CCOC(=O)c1c(CCc2ccc(O)cc2)oc2ccc(C#N)cc12
37 | 205 to 206 | CC(C)(C)NC(=O)NC(Cc1ccccc1)C(=O)Nc1c(F)cc(F)cc1F (centres undefined)
38 | 221 to 223 | COc1ccc(S(=O)(=O)NC(=O)c2ccc(C(=O)NCCO)nc2)cc1

The remaining lines, values behind:

Row | Compound | melting point [°C]
39 | CC12CC(N3CCC(O)CC3)C(O)CC1CCC1C2CCC2(C)C(O)C(N3CCC(O)CC3)CC12 (centres undefined) | 248 to 250
40 | COc1ccc(-c2[nH]c(C(N)(C(F)(F)F)C(F)(F)F)nc2-c2ccc(F)cc2)cc1 | 123 to 124
41 | N#Cc1ncccc1Oc1ccccc1 | 79 to 82
42 | CN(C)CCNc1ccc(-c2n[nH]c3ncccc23)cc1 | 165 to 167
43 | Cc1cc(O)cc2c1C(C)(C)CC2(C)C | 120
44 | OCC(O)C1OC(Sc2ccccc2)C(O)C1O (centres undefined) | 105 to 107
45 | COc1cc(C=C2SC(N3CCOCC3)=NC2=O)cc(-c2ccc(O)c(C34CC5CC(CC(C5)C3)C4)c2)c1O | 335 to 338
46 | CCOC(=O)C1Cc2c(n(C)c3ccc(OCc4ccccc4)cc23)C1 (centres undefined) | 90 to 95
47 | CC(OC1CN(C(N)=O)C1)c1cccc(C(F)(F)F)c1 (centres undefined) | 130 to 132
48 | COc1ccccc1-c1ccc2ccc(NC(=O)c3cccc(Br)c3)nc2n1 | 110
49 | CSC(=NCCSCc1ccc(CN(C)C)o1)NC#N | 78 to 79
50 | CCOP(=O)(Cc1nnc2c(=O)[nH]c3c4ccccc4ccc3n12)OCC | 195 to 197
51 | Oc1ccc2ccc(F)c(F)c2c1F | 91
52 | CCOCc1nc2c(N)nc3cc(OCCCc4cccs4)ccc3c2n1CC(C)(C)NS(C)(=O)=O | 202 to 203
53 | Clc1cccc2c(CN3CC=C(/C=C/c4ccccc4)CC3)n[nH]c12 | 223 to 224
54 | Oc1ccc(Oc2ccc(Oc3ccc(O)cc3)cc2)cc1 | 187 to 189
55 | CS(=O)(=O)CC(=O)N[C@H]1CC[C@H](CCN2CCN(c3nccc4c3OCC4)CC2)CC1 | 187
56 | Fc1ccc2[nH]cc(Cc3ccncc3)c2c1 | 141 to 142
57 | N#CC(C#N)(CC=C(Br)Br)Cc1ccc(OC(F)(F)F)cc1 | 127
58 | CCc1nnc(-c2cccc([N+](=O)[O-])c2)n1-c1ccc(OC)cc1 | 126
59 | CC(C)(SC(=S)c1ccccc1)c1ccc(Cl)cc1 | 77 to 78

Row | Compound | melting point [°C]
60 | Cc1oc(-c2cc3ccccc3s2)nc1COc1ccc(CCCCn2cncn2)cc1 | 131 to 132
61 | CC1(C)CC(=O)C(S(=O)Cc2ccc(F)cc2)=C(O)C1 (centres undefined) | 122 to 125
62 | CCCNS(=O)(=O)c1ccc(Nc2nc(OCC3CCCCC3)c3nc[nH]c3n2)cc1 | 207 to 208
63 | C[C@H]1[C@@H](C(C)(C)O)CCN1c1ccc(C#N)cc1C(F)(F)F | 98 to 100
64 | COc1ccc(C(=O)CSc2ccccc2)cc1 | 83 to 85
65 | Cc1ccc(C(=O)Nc2ccc(C)c(-c3nc(S(C)(=O)=O)nc4c3CNC(=O)N4c3c(F)cccc3F)c2)cc1F | > 270
66 | COc1ccc(-c2ccc3c(C(=O)O)cccc3c2)cc1C12CC3CC(CC(C3)C1)C2 | 222
67 | COc1ccc2cc([C@H](C)C(=O)NN)ccc2c1 | 106 to 108
68 | O=C(C=Cc1ccc(CN(CCO)C2CCCCC2)cc1)Nc1ccc(-c2ccc(Cl)cc2)cc1 | 178 to 179
69 | COC1=Cc2cc(Cl)ccc2C(O)(C2CCN(C)CC2)c2ccsc21 (centres undefined) | 223 to 227
70 | CC(=O)OCCN1CCN(CC#CC2=Cc3ccccc3Sc3ccc(Cl)cc32)CC1 | 96 to 99
71 | CC(C)CCOCc1cc(N2N=C(C(N)=O)NC2c2ccccc2)ccc1Cl (centres undefined) | 174 to 176
72 | CC1CCOC(CBr)(c2ccc(Oc3ccccc3)cc2)O1 (centres undefined) | 96 to 106
73 | CSc1ccc2c(=O)c(SC)cn(C)c2c1 | 154 to 155
74 | CNCC1Cc2cc(-c3ccccc3)cc(-c3ccc(Cl)cc3)c2O1 (centres undefined) | > 250
75 | CCCCCCCCCCCCCCOc1ccc(C(=O)OCC)o1 | 39 to 40
76 | Cn1c(C(F)(F)F)cc(=O)n(-c2nc(Cl)c(C#N)cc2F)c1=O | 146 to 148
77 | CSc1onc(-c2ccccc2)c1-c1ccc(S(N)(=O)=O)cc1 | 135 to 137
78 | COC(=O)c1ccc(Cn2cnc3ccccc32)cc1 | 94 to 95
79 | O=C(c1ccc[nH]1)c1cccn1N1C(=O)c2ccccc2C1=O | 204 to 206
80 | CNn1c(SC)nnc(C(C)C2CC2)c1=O (centres undefined) | 66 to 68

Row | Compound | melting point [°C]
81 | CS(=O)(=O)c1ccc(-c2cnc(N(Cc3ccc(C(F)(F)P(=O)(O)O)c(Cl)c3)c3ccc(Cl)c(Cl)c3)o2)cc1 | 141 to 143
82 | Nc1c(F)cc(Cl)cc1C(O)(C#CC1CC1)C(F)(F)F (centres undefined) | 131 to 135
83 | CCc1ccc(CCOc2ccc(C=C3SC(=O)NC3=O)cc2)nc1 | 166 to 167
84 | CCOC(=O)/C=C(C)/C=C/C=C(C)/C=C/c1c(Cl)cc(OC(F)(F)F)c(C)c1Cl | 93 to 94
85 | O=[N+]([O-])c1nccn1CC(O)CN1C2CCCCCCC21 (centres undefined) | 120 to 122
86 | O=C(O)c1ccc(-n2cc(C3c4ccccc4C=Cc4ccccc43)c(=S)[nH]c2=O)cc1 | 320
87 | N#Cc1cc(=O)n(CCc2ccccc2)s1 | 228
88 | COC(=C[N+](=O)[O-])NCc1cccnc1 | 129 to 130
89 | Cc1ccc(N2CCN(CCCCc3ccc(C4CCC(=O)N4)cc3)CC2)cc1 (centres undefined) | 164 to 165
90 | CCCCc1nn(-c2cc([N+](=O)[O-])ccc2Br)c(=O)n1Cc1ccc(-c2ccccc2S(=O)(=O)NC(C)(C)C)cc1F | 137 to 139
91 | O=C(O)C(S)c1cc(Cl)ccc1Cl (centres undefined) | 129 to 130
92 | CC(C)(N)c1ccc(-c2nc(Nc3cccc(CCN4CCOCC4)c3)ncc2C#N)cc1 | 166 to 167
93 | O=C1c2ccccc2CN1CCN1CCC(c2noc3cc(F)ccc23)CC1 | 166 to 168
94 | CN(Cc1ccc(C(=O)Nc2ccc(Nc3cc(-c4cccc5c4oc4ccccc45)ncn3)cc2)cc1)C(=O)OC(C)(C)C | 225 to 230
95 | CC(=O)c1ccc2c(c1)C(c1ccccn1)CC(C)(C)O2 (centres undefined) | 102 to 105
96 | CCc1nn(-c2c(Cl)cc(C(F)(F)F)cc2Cl)c(CC)c1Cc1c(OC)ccc2ccccc12 | 96 to 98
97 | CCCC(C(=O)NC)n1cc(C)c(-c2ccccc2)n1 (centres undefined) | 84 to 86
98 | N#CC(SSC(C#N)c1c[nH]c2ccccc12)c1c[nH]c2ccccc12 (centres undefined) | 169 to 170
99 | Clc1ccc2c(c1)C(n1ccnc1)c1ccccc1CO2 (centres undefined) | 180 to 182
